Measurements published in article PMC11990136, “Prenylation of Flavanones by an Aromatic Prenyltransferase from Fusarium globosum” (Molecules, 2025).

Tests used:
FgPT1 [1] = target: T1, FgPT1 (Fusarium globosum, UniProt A0A8H5XPW9); assay: HPLC product formation, Michaelis-Menten fit; assay type: biochemical; details: 1 mM DMAPP, 1 mM BaCl2, 100 mM Tris-HCl pH 7.5, 37 °C, apparent
T1 construct: gene FGLOB1_12591; full length, 426 residues, N-terminal His6 tag (pET-28a, synthetic gene), E. coli BL21(DE3), Ni-NTA
T1 sequence (A0A8H5XPW9 entry or part of it): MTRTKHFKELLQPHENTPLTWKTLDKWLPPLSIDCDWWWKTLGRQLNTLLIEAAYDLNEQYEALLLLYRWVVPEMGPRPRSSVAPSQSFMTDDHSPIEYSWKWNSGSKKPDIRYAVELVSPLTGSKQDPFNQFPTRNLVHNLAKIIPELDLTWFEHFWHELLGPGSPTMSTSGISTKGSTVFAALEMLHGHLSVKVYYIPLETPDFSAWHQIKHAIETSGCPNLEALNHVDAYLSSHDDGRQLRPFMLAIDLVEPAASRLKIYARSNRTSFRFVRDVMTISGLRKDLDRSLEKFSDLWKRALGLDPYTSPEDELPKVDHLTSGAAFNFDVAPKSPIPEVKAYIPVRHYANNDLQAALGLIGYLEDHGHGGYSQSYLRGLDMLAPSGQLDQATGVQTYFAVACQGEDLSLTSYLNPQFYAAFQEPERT
From the text: HPLC product formation, Michaelis-Menten fit on FgPT1

FgPT1 [2] = target: T1, FgPT1; assay: HPLC / LC-MS product detection; assay type: biochemical; details: prenyl donor; with flavanone acceptor, metal ion (Ba2+ best), Tris-HCl pH 7.5, 37 °C

Structure (SMILES) | KM (mM) (FgPT1 [1]) | other results
O=C1CC(c2ccccc2)Oc2cc(O)cc(O)c21 (racemic) [compound 5, Rac-pinocembrin] | – | KM (mM) (FgPT1 [1]; racemic substrate): 0.14 ± (0.037) mM
CC(C)=CCOP(=O)(O)OP(=O)(O)O [DMAPP] | – | HPLC / LC-MS product detection (FgPT1 [2]): using DMAPP as the prenyl donor revealed catalytic activity exclusively toward six flavanones
O=C1C[C@@H](c2ccc(O)cc2)Oc2cc(O)cc(O)c21 [compound 1, Naringenin] | 0.26 ± (0.077) mM | –
COc1ccc([C@@H]2CC(=O)c3c(O)cc(O)cc3O2)cc1O [compound 2, Hesperetin] | 0.94 ± (0.075) mM | –
O=C1C[C@@H](c2ccc(O)c(O)c2)Oc2cc(O)cc(O)c21 [compound 3, Eriodictyol] | 0.23 ± (0.026) mM | –
O=C1C[C@@H](c2ccc(O)cc2)Oc2cc(O)ccc21 [compound 4, Liquiritigenin] | 0.93 ± (0.161) mM | –
O=C1c2c(O)cc(O)cc2OCC1c1ccc(O)cc1 (stereo not shown) [compound 6, Dihydrogenistein] | 0.14 ± (0.026) mM | –
